# From patent US12448388B2, “PRMT5 inhibitors and uses thereof” (Gilead Sciences, Inc., priority 2023, dated 2025)
# Like-named read-outs stand apart in the source and are kept apart here.
# Tested on: HCT116 MTAP-deleted cell lines
# Test: Cell viability assay (CellTiter-Glo, 7 days), HCT116 MTAP-deleted
# Type: cell-based
# Details: Homo sapiens, HCT-116, HCT116 MTAP-deleted, class symbols, read-out: CC50
# Summary of the method: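 PRMT5 inhibitors were serially diluted in DMSO and acoustically spotted as dose-response series into plates before cell seeding. Cells were grown with compound for 7 days at 37 °C, 5% CO2, 90% humidity, then viability was read by CellTiter-Glo luminescence and reported as CC50.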
structure (smiles),measurement,setting,value
"Nc1nc2cc(F)c(C(=O)N3CCC[C@@H]4Oc5cc(C(F)(F)F)ccc5[C@@H]43)cc2n2cnc(Cl)c12 (single isomer, unassigned) [Ff-647]",CC50,cell viability assay,< 100 nM
"Cc1ncc2c(N)nc3ccc(C(=O)N4C[C@H](C)O[C@@H]5Cc6cc(OC(F)(F)F)ccc6[C@@H]54)cc3n12 (single isomer, unassigned) [Ff-190]",CC50,cell viability,100 to 1000 nM
"COC[C@@H](C)N(Cc1ccc(C(F)(F)F)cc1F)C(=O)c1cc2c(cc1F)nc(N)c1cncn12 [Ff-419, 4-amino-7-fluoro-N-[[2-fluoro-4-(trifluoromethyl)phenyl]methyl]-N-[(1R)-2-methoxy-1-methyl-ethyl]imidazo[1,5-a]quinoxaline-8-carboxamide]",CC50,cell viability assay,< 100 nM
"CN(C(=O)c1cc2c(cc1F)nc(N)c1cncn12)[C@@H]1COc2c1ccc(OC(F)F)c2F [Ff-672, (S)-4-amino-N-(6-(difluoromethoxy)-7-fluoro-2,3-dihydrobenzofuran-3-yl)-7-fluoro-N-methylimidazo[1,5-a]quinoxaline-8-carboxamide]",CC50,cell viability assay,< 100 nM
"CN(Cc1ccc([C@@H]2C[C@H]2c2ccn(C(F)F)n2)cc1F)C(=O)c1cc2c(cc1F)nc(N)c1cncn12 [Ff-429, 4-amino-N-[[4-[(1R,2R)-2-[1-(difluoromethyl)pyrazol-3-yl]cyclopropyl]-2-fluoro-phenyl]methyl]-7-fluoro-N-methyl-imidazo[1,5-a]quinoxaline-8-carboxamide]",CC50,cell viability assay,< 100 nM
"C[C@@H]1C[C@@H]2Oc3nc(C(F)(F)F)ccc3[C@@H]2N(C(=O)c2cc3c(cc2F)nc(N)c2cncn23)C1 [Ff-375, (4-amino-7-fluoroimidazo[1,5-a]quinoxalin-8-yl)((3R,4aS,9bS)-3-methyl-7-(trifluoromethyl)-3,4,4a,9b-tetrahydrofuro[2,3-b:4,5-b′]dipyridin-1(2H)-yl)methanone]",CC50,cell viability assay,< 100 nM
"C[C@H](c1ccc(C(F)(F)F)cn1)N(C(=O)c1cc2c(cc1F)nc(N)c1cncn12)C1CC1 [Ff-153, (R)-4-amino-N-cyclopropyl-7-fluoro-N-(1-(5-(trifluoromethyl)pyridin-2-yl)ethyl)imidazo[1,5-a]quinoxaline-8-carboxamide]",CC50,cell viability,< 100 nM
"CN(C(=O)c1cc2c(cc1Cl)nc(N)c1cncn12)[C@@H]1COc2cc(C(C)(F)F)ccc21 [Ff-508, (S)-4-amino-7-chloro-N-(6-(1,1-difluoroethyl)-2,3-dihydrobenzofuran-3-yl)-N-methylimidazo[1,5-a]quinoxaline-8-carboxamide]",CC50,cell viability assay,< 100 nM
"Nc1nc2cc(F)c(C(=O)N3CC(F)(F)CC[C@@H]3c3ccc(C(F)(F)F)cn3)cc2n2cncc12 (single isomer, unassigned) [Ff-242]",CC50,cell viability,< 100 nM
"CN(C(=O)c1cc2c(cc1F)nc(N)c1cncn12)[C@@H]1COc2cc(C(F)F)ccc21 [Ff-576, (S)-4-amino-N-(6-(difluoromethyl)-2,3-dihydrobenzofuran-3-yl)-7-fluoro-N-methylimidazo[1,5-a]quinoxaline-8-carboxamide]",CC50,cell viability assay,100 to 1000 nM
"Cc1c(N(Cc2ccc(C(F)(F)F)cc2F)C(=O)c2cc3c(cc2F)nc(N)c2cncn23)cnn1C [Ff-414, 4-amino-N-(1,5-dimethylpyrazol-4-yl)-7-fluoro-N-[[2-fluoro-4-(trifluoromethyl)phenyl]methyl]imidazo[1,5-a]quinoxaline-8-carboxamide]",CC50,cell viability assay,< 100 nM
"CN(C(=O)c1cc2c(cc1F)nc(N)c1cncn12)[C@@H]1CCc2cc(C(F)F)ccc21 [Ff-166, (R)-4-amino-N-(5-(difluoromethyl)-2,3-dihydro-1H-inden-1-yl)-7-fluoro-N-methylimidazo[1,5-a]quinoxaline-8-carboxamide]",CC50,cell viability,< 100 nM
"CN(C(=O)c1cc2c(cc1F)nc(N)c1cncn12)C1COc2cc3ccccc3cc21 (centres unmarked) [Ff-600, 4-amino-N-(2,3-dihydronaphtho[2,3-b]furan-3-yl)-7-fluoro-N-methylimidazo[1,5-a]quinoxaline-8-carboxamide]",CC50,cell viability assay,< 100 nM
"CN(C(=O)c1ccc2nc(N)c3cncn3c2c1)[C@@H]1COc2cc(C#CC3(CF)CC3)ccc21 [Ff-520, (S)-4-amino-N-(6-((1-(fluoromethyl)cyclopropyl)ethynyl)-2,3-dihydrobenzofuran-3-yl)-N-methylimidazo[1,5-a]quinoxaline-8-carboxamide]",CC50,cell viability assay,100 to 1000 nM
"CN(C(=O)c1cc2c(cc1F)nc(N)c1cncn12)[C@@H]1COc2cc(C(F)(F)F)c(F)cc21 [Ff-503, (S)-4-amino-7-fluoro-N-(5-fluoro-6-(trifluoromethyl)-2,3-dihydrobenzofuran-3-yl)-N-methylimidazo[1,5-a]quinoxaline-8-carboxamide]",CC50,cell viability assay,< 100 nM
"Nc1nc2cc(F)c(C(=O)N3CC(F)(F)CCC3c3ccc(C(F)(F)F)cn3)cc2n2cncc12 (centres unmarked) [Ff-222, (4-amino-7-fluoroimidazo[1,5-a]quinoxalin-8-yl)(5,5-difluoro-2-(5-(trifluoromethyl)pyridin-2-yl)piperidin-1-yl)methanone]",CC50,cell viability,< 100 nM
"CN(C(=O)c1cc2c(cc1F)nc(N)c1cncn12)[C@@H]1COc2cc(-c3cnn(C4COC4)c3)ccc21 [Ff-145, (S)-4-amino-7-fluoro-N-methyl-N-(6-(1-(oxetan-3-yl)-1H-pyrazol-4-yl)-2,3-dihydrobenzofuran-3-yl)imidazo[1,5-a]quinoxaline-8-carboxamide]",CC50,cell viability,< 100 nM
"Nc1nc2ccc(C(=O)N(Cc3ccc(OC(F)F)cc3F)C34CC(C3)C4)cc2n2cncc12 [Ff-264, 4-amino-N-(bicyclo[1.1.1]pentan-1-yl)-N-(4-(difluoromethoxy)-2-fluorobenzyl)imidazo[1,5-a]quinoxaline-8-carboxamide]",CC50,cell viability,100 to 1000 nM
"CN(C(=O)c1cc2c(cc1F)nc(N)c1cncn12)C1COc2c1ccc(C(F)(F)F)c2Cl (centres unmarked) [Ff-158, 4-amino-N-(7-chloro-6-(trifluoromethyl)-2,3-dihydrobenzofuran-3-yl)-7-fluoro-N-methylimidazo[1,5-a]quinoxaline-8-carboxamide]",CC50,cell viability,< 100 nM
"Nc1nc2cc(F)c(C(=O)N3CCC[C@@H]4OCc5nc(C(F)(F)F)ccc5[C@@H]43)cc2n2cncc12 [Ff-357, (4-amino-7-fluoroimidazo[1,5-a]quinoxalin-8-yl)((4aS,10bS)-8-(trifluoromethyl)-2,3,4,4a,6,10b-hexahydro-1H-pyrano[3,2-b:5,4-b′]dipyridin-1-yl)methanone]",CC50,cell viability,< 100 nM
"CN(C(=O)c1cc2c(cc1F)nc(N)c1cncn12)[C@@H]1COc2c1ccc(C(F)(F)F)c2F [Ff-354, (S)-4-amino-7-fluoro-N-(7-fluoro-6-(trifluoromethyl)-2,3-dihydrobenzofuran-3-yl)-N-methylimidazo[1,5-a]quinoxaline-8-carboxamide]",CC50,cell viability,< 100 nM
"Cc1ncc2c(N)nc3cnc(C(=O)N4C[C@@H](C)O[C@@H]5Cc6cc(Cl)ccc6[C@@H]54)cc3n12 (single isomer, unassigned) [Ff-463]",CC50,cell viability assay,100 to 1000 nM
"CN(C(=O)c1cc2c(cc1F)nc(N)c1cncn12)[C@@H]1COc2cc(-c3cnn(C(F)(F)F)c3)ccc21 [Ff-95, (S)-4-amino-7-fluoro-N-methyl-N-(6-(1-(trifluoromethyl)-1H-pyrazol-4-yl)-2,3-dihydrobenzofuran-3-yl)imidazo[1,5-a]quinoxaline-8-carboxamide]",CC50,cell viability,< 100 nM
"CN(C(=O)c1cc2c(cc1F)nc(N)c1cncn12)[C@@H]1COc2cc([C@@H]3C[C@H]3C3CC3)ccc21 (racemic) [Ff-474, Trans-N-((3S)-6-([1,1′-bi(cyclopropan)]-2-yl)-2,3-dihydrobenzofuran-3-yl)-4-amino-7-fluoro-N-methylimidazo[1,5-a]quinoxaline-8-carboxamide]",CC50,cell viability assay,< 100 nM
"C[C@H](C(=O)N(C)C)N(Cc1ccc(C(F)(F)F)cc1F)C(=O)c1cc2c(cc1F)nc(N)c1cncn12 [Ff-69, 4-amino-N-[(1R)-2-(dimethylamino)-1-methyl-2-oxo-ethyl]-7-fluoro-N-[[2-fluoro-4-(trifluoromethyl)phenyl]methyl]imidazo[1,5-a]quinoxaline-8-carboxamide]",CC50,cell viability,100 to 1000 nM
"Nc1nc2cc(F)c(C(=O)N3CC4CCC(O4)C3c3ccc(C(F)(F)F)cn3)cc2n2cncc12 (centres unmarked) [Ff-511, (4-amino-7-fluoroimidazo[1,5-a]quinoxalin-8-yl)(2-(5-(trifluoromethyl)pyridin-2-yl)-8-oxa-3-azabicyclo[3.2.1]octan-3-yl)methanone]",CC50,cell viability assay,100 to 1000 nM
"Cn1cc(N(Cc2ccc(-c3cnn(C(F)F)c3)cc2F)C(=O)c2cc3c(cc2F)nc(N)c2cncn23)cn1 [Ff-221, 4-amino-N-(4-(1-(difluoromethyl)-1H-pyrazol-4-yl)-2-fluorobenzyl)-7-fluoro-N-(1-methyl-1H-pyrazol-4-yl)imidazo[1,5-a]quinoxaline-8-carboxamide]",CC50,cell viability,< 100 nM
"CN(C(=O)c1cc2c(cc1F)nc(N)c1cncn12)[C@@H]1COc2cc([C@H]3C[C@@H]3C(F)F)ccc21 (single isomer, unassigned) [Ff-505]",CC50,cell viability assay,< 100 nM
"CC1(N(Cc2ccc(C(F)(F)F)cc2F)C(=O)c2ccc3nc(N)c4cncn4c3c2)COC1 [Ff-270, 4-amino-N-(2-fluoro-4-(trifluoromethyl)benzyl)-N-(3-methyloxetan-3-yl)imidazo[1,5-a]quinoxaline-8-carboxamide]",CC50,cell viability,100 to 1000 nM
"CC1(C)CN(C(=O)c2cc3c(cc2F)nc(N)c2cncn23)CC1c1ccccc1 (centres unmarked) [Ff-2, (4-amino-7-fluoroimidazo[1,5-a]quinoxalin-8-yl)(3,3-dimethyl-4-phenylpyrrolidin-1-yl)methanone]",CC50,cell viability,100 to 1000 nM
"CN(C(=O)c1cc2c(cc1F)nc(N)c1cncn12)C1COc2c1ccc1c2OC(F)(F)O1 (centres unmarked) [Ff-156, 4-amino-N-(2,2-difluoro-6,7-dihydro-[1,3]dioxolo[4,5-g]benzofuran-6-yl)-7-fluoro-N-methylimidazo[1,5-a]quinoxaline-8-carboxamide]",CC50,cell viability,100 to 1000 nM
"Cc1nn(C)cc1N(Cc1ccc(C(F)(F)F)cc1F)C(=O)c1cc2c(cc1F)nc(N)c1cncn12 [Ff-413, 4-amino-N-(1,3-dimethylpyrazol-4-yl)-7-fluoro-N-[[2-fluoro-4-(trifluoromethyl)phenyl]methyl]imidazo[1,5-a]quinoxaline-8-carboxamide]",CC50,cell viability assay,< 100 nM
